From US10065931B2, “Quinazolin crotyl compound dimaleate crystals and preparation methods and uses thereof” (HANGZHOU HUADONG MEDICINE GROUP BIOPHARMACEUTICAL CO., LTD., priority 2015, dated 2018)
Converted amounts (≈) assume the structure as drawn. Like-named read-outs stand apart in the source and are kept apart here.

How the values were obtained:
Format in all cases: physicochemical
[1] = Storage stability test, physical stability by XRPD; conditions: for XRPD pattern after storage (physical stability): one week of storage, 25° C./60% R.H. and 40° C./75% R.H.
Procedure: In the following examples, the XRPD of the crystal form was determined using a PANalytical Empyrean X-ray powder diffraction analyzer, the parameters are summarized in Table 1.

[2] = Storage stability test, chemical content by HPLC; conditions: for Initial content: before storage; for Chemical stability, 25° C./60% R.H. One week / Chemical stability, 40° C./75% R.H. One week: chemical content as % of initial content; for Chemical content after storage (in words): one week, 40° C./75% R.H.
[3] = Second set of competition of stabilities between crystal form K and crystal form F (solid mixture stored 10 days, XRPD)
Text: Then two samples were placed in different environments for 10 days and were subjected to XRPD test respectively.

[4] = Solubility in water, FaSSIF, FeSSIF and SGF
Procedure: Wherein FaSSIF and FeSSIF were prepared according to the method described in the literature: Study of a Standardized Taurocholate-Lecithin Powder for Preparing the Biorelevant Media FeSSIF and FaSSIF (Kloefer, B., van Hoogevest, P., Moloney, R., Kuentz, M., Leigh, M. L., & Dressman, J. (2010). Dissolution Technologies, August 17(3), 6-14. SGF was prepared according to the method described in the literature Albendazole Generics-A Comparative In Vitro Study (Galia E., Horton, J and Dressman J. (1999) Pharmaceutical Research, 16 (12), […]). The test results are summarized in Table 6.

[5] = First set of competition of stabilities between crystal form K and crystal form F (suspension, different water activities, XRPD); conditions: room temperature
Procedure: After 12 hours of stirring under room temperature, the solid was isolated by centrifugation and the XRPD thereof was tested.

[6] = Competition of stability between crystal form K and crystal form G in water (XRPD); conditions: 12 hours stirring, room temperature
Procedure: After 12 hours of stirring under room temperature, the solid was separated by centrifugation and was subjected to XRPD test, the results are shown in FIG. 20.

| SMILES | XRPD pattern after storage (physical stability) [1] | Initial content [2] | Chemical stability, 25° C./60% R.H. One week [2] | Chemical stability, 40° C./75% R.H. One week [2] | Chemical content after storage (in words) [2] | Solubility ([4]; FaSSIF, pH 6.5) | Solubility ([4]; FeSSIF, pH 5.0) | Solubility ([4]; SGF, pH 1.8) | Solubility ([4]; Water, pH 7.4) | other results |
| --- | --- | --- | --- | --- | --- | --- | --- | --- | --- | --- |
| CN(C)C/C=C/C(=O)Nc1cc2c(Nc3ccc(F)c(Cl)c3)ncnc2cc1OC(F)F [Crystal form F] | basically the same | 100.0% | 99.8% | 99.7% | stable | 2.44 mg/mL (≈ 5.24 mM) | 0.57 mg/mL (≈ 1.22 mM) | >10.65 mg/mL | >9.81 mg/mL | Crystal form after storage of crystal form F mixed with about 1% crystal form K ([3]; 25° C., 60% R.H.): form F; Crystal form after storage of crystal form F mixed with about 1% crystal form K ([3]; 25° C., 60% R.H., listed as crystal form F): did not change; Crystal form after storage of crystal form F mixed with about 1% crystal form K ([3]; 40° C., 75% R.H.): form K; Crystal form after storage of crystal form F mixed with about 1% crystal form K ([3]; 40° C., 75% R.H., listed as crystal form F): converted to the crystal form K |
| CN(C)C/C=C/C(=O)Nc1cc2c(Nc3ccc(F)c(Cl)c3)ncnc2cc1OC(F)F [Crystal form K] | basically the same | 100.0% | 99.9% | 99.8% | stable | 8.36 mg/mL (≈ 17.9 mM) | 1.24 mg/mL (≈ 2.66 mM) | >9.95 mg/mL | >10.02 mg/mL | XRPD pattern after storage (physical and chemical stability) ([1]; 6 months of storage, 40° C./75% R.H.): basically the same; Water activity at which crystal form K is thermodynamically more stable than crystal form F [5]: greater than or equal to 0.15; Crystal form after competition with crystal form F ([5]; water activity 0.00, IPA, 12 hours stirring): Crystal form F; Crystal form after competition with crystal form F ([5]; water activity 0.15, IPA:H2O 99:1, 12 hours stirring): Crystal form K; Crystal form after competition with crystal form F ([5]; water activity 0.39, IPA:H2O 24:1, 12 hours stirring): Crystal form K; Crystal form after competition with crystal form F ([5]; water activity 0.60, ACN:H2O 19:1, 12 hours stirring): Crystal form K; Crystal form after competition with crystal form F ([5]; water activity 0.80, ACN:H2O 9:1, 12 hours stirring): Crystal form K |
| CN(C)C/C=C/C(=O)Nc1cc2c(Nc3ccc(F)c(Cl)c3)ncnc2cc1OC(F)F [Crystal form E] |  | 100.0% | 99.8% | 99.5% |  |  |  |  |  |  |
| CN(C)C/C=C/C(=O)Nc1cc2c(Nc3ccc(F)c(Cl)c3)ncnc2cc1OC(F)F [Crystal form G] |  | 100.0% | 99.8% | 99.6% | stable |  |  |  |  | Crystal form after competition with crystal form K in saturated water solution [6]: converted to crystal form K |
| CN(C)C/C=C/C(=O)Nc1cc2c(Nc3ccc(F)c(Cl)c3)ncnc2cc1OC(F)F [Free base] | changed significantly | 100.0% | 99.8% | 94.8% |  | 0.03 mg/mL (≈ 0.0644 mM) | 0.10 mg/mL (≈ 0.215 mM) |  | <0.0025 mg/mL | Long-term storage stability (in words) [1]: poor; Chemical stability, 40° C./75% R.H. One week ([2]; listed as free base): 94.8%; Water solubility (in words) [4]: poor; Solubility ([4]; SGF, pH 1.8, simulated gastric fluid, thermodynamic from solid, SGF, pH 1.8, read-out: Solubility): 8.37 mg/mL (≈ 18 mM) |
